Measured values taken from BigSolDB 2.1.

Cc1c(C(=O)O)cc([N+](=O)[O-])cc1[N+](=O)[O-]
solubility (mole fraction)
Conditions | 288.15 K | 293.15 K | 298.15 K | 303.15 K | 308.15 K | 313.15 K | 318.15 K | 323.15 K | 328.15 K | 333.15 K
in acetonitrile | 0.0071 | 0.0084 | 0.00994 | 0.012 | 0.0145 | 0.0176 | 0.0209 | 0.0248 | 0.0292 | 0.0341
in cyclohexane | 1.4e-05 | 1.96e-05 | 2.69e-05 | 3.64e-05 | 4.87e-05 | 6.37e-05 | 8.12e-05 | 0.000103 | 0.000131 | 0.000166
in ethanol | 0.0467 | 0.0526 | 0.0604 | 0.0695 | 0.0783 | 0.0882 | 0.099 | 0.11 | 0.123 | 0.134
in ethyl acetate | 0.0237 | 0.0271 | 0.0312 | 0.0359 | 0.041 | 0.0467 | 0.0536 | 0.0611 | 0.0694 | 0.0781
in isopropanol | 0.0102 | 0.0121 | 0.0147 | 0.017 | 0.0202 | 0.0232 | 0.0276 | 0.0327 | 0.0384 | 0.0442
in n-butanol | 0.0109 | 0.0129 | 0.0152 | 0.0179 | 0.0209 | 0.0243 | 0.0284 | 0.034 | 0.0393 | 0.0457
in n-heptanol | 0.0128 | 0.0146 | 0.017 | 0.0208 | 0.025 | 0.0295 | 0.0341 | 0.0396 | 0.0458 | 0.0524
in n-hexanol | 0.00982 | 0.0114 | 0.0131 | 0.0151 | 0.0177 | 0.0208 | 0.0244 | 0.0288 | 0.0338 | 0.0394
in n-pentanol | 0.012 | 0.0138 | 0.0165 | 0.0193 | 0.0226 | 0.026 | 0.0303 | 0.0356 | 0.0414 | 0.0478
in n-propanol | 0.0126 | 0.0146 | 0.0169 | 0.0202 | 0.0239 | 0.0278 | 0.0326 | 0.0381 | 0.0442 | 0.0505
in sec-butanol | 0.0114 | 0.0134 | 0.0158 | 0.0187 | 0.0219 | 0.0257 | 0.03 | 0.0349 | 0.0405 | 0.0467
in toluene | 0.0174 | 0.0207 | 0.0242 | 0.0284 | 0.0328 | 0.0377 | 0.0434 | 0.0493 | 0.0558 | 0.0628
in water | 1.67e-05 | 2.35e-05 | 3.5e-05 | 4.55e-05 | 5.87e-05 | 7.99e-05 | 0.000108 | 0.000137 | 0.000171 | 0.000218
